Test results: ChEMBL document CHEMBL3045524, “Development of a new acaricide, cyflumetofen” (J Pestic Sci, 2012)
Values after ≈ are worked out from the molar mass of the structure shown.

Key:
[1] = system: Tetranychus urticae; experiment: Acaricidal activity against Tetranychus urticae (two-spotted spider mite) larvae; format: functional
[2] = Octanol-water partition co-efficient, log P of the compound; format: physicochemical
[3] = system: Panonychus citri; experiment: Acaricidal activity against Panonychus citri at developmental stages; format: functional
[4] = system: Tetranychus kanzawai; experiment: Acaricidal activity against Tetranychus kanzawai at developmental stages; format: functional
[5] = system: Tetranychus urticae; experiment: Acaricidal activity against Tetranychus urticae (two-spotted spider mite) adult; format: functional
[6] = Solubility of the compound in water; format: physicochemical

In the case of `COCCOC(=O)C(C#N)(C(=O)c1ccccc1C(F)(F)F)c1ccc(C(C)(C)C)cc1` (racemic) [CYFLUMETOFEN], the LC50 [1] is reported as 0.9 µg/mL (≈ 2.01 µM), the logP [2] is reported as 4.3 and the LC50 [3] is reported as under 5 µg/mL. For the same compound, the LC50 [4] was under 5 µg/mL, the LC50 [5] was 4.8 µg/mL (≈ 10.7 µM) and the solubility [6] was 0.0281 µg/mL (≈ 0.0628 µM).
